Measurements: the supplement of paper PMC11451515

Test system: P12-Ichikawa
Test: cell viability relative to DMSO control; higher = less cytotoxic
Settings: 48 h
Procedure, shortened: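 Library compounds in DMSO were pin-dosed into 1536-well plates (5 μl) holding NOMO1 or SEM (500 cells/well) or P12-Ichikawa (1000 cells/well) leukemia cells, across an 11-point threefold series of 47 μM to 0.79 nM. Each cell line had been adapted for at least four passages in each medium. CellTiter-Glo One luminescence was read after 48 h at 37°C. Viability is the per-plate percentage relative to DMSO wells, with cell-free wells as background.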

[1] = HPLM + 10% dialyzed FBS, 0.000781 µM
[2] = HPLM + 10% dialyzed FBS, 0.00234 µM
[3] = HPLM + 10% dialyzed FBS, 0.00702 µM
[4] = HPLM + 10% dialyzed FBS, 0.0211 µM
[5] = HPLM + 10% dialyzed FBS, 0.0632 µM
[6] = HPLM + 10% dialyzed FBS, 0.19 µM
[7] = HPLM + 10% dialyzed FBS, 0.569 µM
[8] = HPLM + 10% dialyzed FBS, 1.71 µM
[9] = HPLM + 10% dialyzed FBS, 5.12 µM
[10] = HPLM + 10% dialyzed FBS, 15.4 µM
[11] = HPLM + 10% dialyzed FBS, 46.1 µM
[12] = RPMI 5 mM glucose + 10% FBS, 0.000781 µM
[13] = RPMI 5 mM glucose + 10% FBS, 0.00234 µM
[14] = RPMI 5 mM glucose + 10% FBS, 0.00702 µM
[15] = RPMI 5 mM glucose + 10% FBS, 0.0211 µM
[16] = RPMI 5 mM glucose + 10% FBS, 0.0632 µM
[17] = RPMI 5 mM glucose + 10% FBS, 0.19 µM
[18] = RPMI 5 mM glucose + 10% FBS, 0.569 µM
[19] = RPMI 5 mM glucose + 10% FBS, 1.71 µM
[20] = RPMI 5 mM glucose + 10% FBS, 5.12 µM
[21] = RPMI 5 mM glucose + 10% FBS, 15.4 µM
[22] = RPMI 5 mM glucose + 10% FBS, 46.1 µM
[23] = RPMI 5 mM glucose + 10% dialyzed FBS, 0.000781 µM
[24] = RPMI 5 mM glucose + 10% dialyzed FBS, 0.00234 µM
[25] = RPMI 5 mM glucose + 10% dialyzed FBS, 0.00702 µM
[26] = RPMI 5 mM glucose + 10% dialyzed FBS, 0.0211 µM
[27] = RPMI 5 mM glucose + 10% dialyzed FBS, 0.0632 µM
[28] = RPMI 5 mM glucose + 10% dialyzed FBS, 0.19 µM
[29] = RPMI 5 mM glucose + 10% dialyzed FBS, 0.569 µM
[30] = RPMI 5 mM glucose + 10% dialyzed FBS, 1.71 µM
[31] = RPMI 5 mM glucose + 10% dialyzed FBS, 5.12 µM
[32] = RPMI 5 mM glucose + 10% dialyzed FBS, 15.4 µM
[33] = RPMI 5 mM glucose + 10% dialyzed FBS, 46.1 µM

With `CCN(CC)C(=S)SSC(=S)N(CC)CC` the cell viability [1] was 104%, the cell viability [2] was 106% and the cell viability [3] was 118%. For the same compound, the cell viability [4] was 120%, the cell viability [5] was 117% and the cell viability [6] was 109%. For the same compound, the cell viability [7] was 119%, the cell viability [8] was 122% and the cell viability [9] was 4.64%. The cell viability [10] was 10.4%, the cell viability [11] was 9.15% and the cell viability [12] was 103%. The cell viability [13] was 98.6%, the cell viability [14] was 112% and the cell viability [15] was 122%. It also gave a cell viability [16] of 119%, a cell viability [17] of 115% and a cell viability [18] of 115%. It also gave a cell viability [19] of 116%, a cell viability [20] of 4.29% and a cell viability [21] of 5.91%. The cell viability [22] was 4.43%, the cell viability [23] was 104% and the cell viability [24] was 105%. It also gave a cell viability [25] of 116%, a cell viability [26] of 115% and a cell viability [27] of 115%. For the same compound, the cell viability [28] was 112%, the cell viability [29] was 108% and the cell viability [30] was 115%. The cell viability [31] was 4%, the cell viability [32] was 3.98% and the cell viability [33] was 3.13%.
For `C[C@H]1C[C@H]2[C@@H]3CCC4=CC(=O)C=C[C@]4(C)[C@@]3(F)[C@@H](O)C[C@]2(C)[C@@]1(O)C(=O)CO`, the cell viability [1] was 114%, the cell viability [2] was 119% and the cell viability [3] was 118%. For the same compound, the cell viability [4] was 109%, the cell viability [5] was 98.1% and the cell viability [6] was 78.3%. It also gave a cell viability [7] of 73.9%, a cell viability [8] of 71.9% and a cell viability [9] of 71%. For the same compound, the cell viability [10] was 65.5%, the cell viability [11] was 65.8% and the cell viability [12] was 121%. It also gave a cell viability [13] of 126%, a cell viability [14] of 116% and a cell viability [15] of 108%. It also gave a cell viability [16] of 99.8%, a cell viability [17] of 73.1% and a cell viability [18] of 65.1%. For the same compound, the cell viability [19] was 60.1%, the cell viability [20] was 51.7% and the cell viability [21] was 55.6%. For the same compound, the cell viability [22] was 43.5%, the cell viability [23] was 110% and the cell viability [24] was 119%. The cell viability [25] was 116%, the cell viability [26] was 101% and the cell viability [27] was 81.1%. The cell viability [28] was 59.9%, the cell viability [29] was 56% and the cell viability [30] was 48.2%. For the same compound, the cell viability [31] was 46%, the cell viability [32] was 41.5% and the cell viability [33] was 42.5%.
`NC1=NC=C(C=C1)C2=CC=C3N=CC\4=C(N(C(=O)\C=C4)C5=CC(=CC=C5)C(F)(F)F)C3=C2` gave a cell viability [1] of 81.4%, a cell viability [2] of 82.7% and a cell viability [3] of 76.7%. It also gave a cell viability [4] of 66.7%, a cell viability [5] of 58.6% and a cell viability [6] of 41.1%. For the same compound, the cell viability [7] was 42.6%, the cell viability [8] was 34.5% and the cell viability [9] was 11.6%. The cell viability [10] was 14%, the cell viability [11] was 15.7% and the cell viability [12] was 67.1%. The cell viability [13] was 64.9%, the cell viability [14] was 56.3% and the cell viability [15] was 51.8%. It also gave a cell viability [16] of 50.4%, a cell viability [17] of 34% and a cell viability [18] of 33.4%. The cell viability [19] was 27.2%, the cell viability [20] was 7.23% and the cell viability [21] was 7.38%. It also gave a cell viability [22] of 11.5%, a cell viability [23] of 64.4% and a cell viability [24] of 74.4%. The cell viability [25] was 59.6%, the cell viability [26] was 52.7% and the cell viability [27] was 50.3%. It also gave a cell viability [28] of 32.9%, a cell viability [29] of 30.4% and a cell viability [30] of 23.7%. For the same compound, the cell viability [31] was 7.6%, the cell viability [32] was 7.89% and the cell viability [33] was 12.4%.
In the case of `CCCCNc1cc(C(=O)O)cc([S+](N)(=O)[O-])c1Oc1ccccc1`, the cell viability [1] is reported as 117%, the cell viability [2] is reported as 116% and the cell viability [3] is reported as 118%. The cell viability [4] was 116%, the cell viability [5] was 124% and the cell viability [6] was 120%. The cell viability [7] was 121%, the cell viability [8] was 118% and the cell viability [9] was 117%. It also gave a cell viability [10] of 128%, a cell viability [11] of 127% and a cell viability [23] of 111%. The cell viability [24] was 119%, the cell viability [25] was 115% and the cell viability [26] was 115%. It also gave a cell viability [27] of 118%, a cell viability [28] of 117% and a cell viability [29] of 116%. For the same compound, the cell viability [30] was 113%, the cell viability [31] was 124% and the cell viability [32] was 124%. It also gave a cell viability [33] of 116%.
